Test results: patent US4444776A, “Dipyrido (4,3-B) (3,4-F) indoles, process for obtaining them, therapeutical use and pharmaceutical compositions” (priority 1977, dated 1984)

Tests used:
L1210 leukemia = assay: Test 16: structure-activity of R'1 substitution, L1210 (Table XII); type: in vivo, mouse (C57B16xDBA/2)F1; design: MST: unit not given here; conditions: for 60 days surv. / ILS % / MST / Range of death: day +1
Procedure: Test 16: Relationship between structure and activity of various dipyrido indoles differing by the R'1 substitution.
L1210 leukemia has been maintained by weekly passages on (C57B16xDBA/2)F1 mice. On day 0, mice were inoculated by I.P. route with various numbers of L1210 ascitic tumor cells in volumes of 0.1 ml. Subsequently as indicated, drugs were administrated in Ca^++ and Mg^++ free PBS solutions (Gibco) or in Mac Coy's medium (Gibso or Microbiological Associates). […]

Cl3/8 cells = assay: Test 5: cytotoxic effect in vitro, Cl3/8 cells; type: cell-based, hamster
Procedure: Test 5: Cytotoxic effect in vitro
The cytotoxic effects of the compounds according to the invention were tested in vitro on cultures of hamster, human and mouse cells.
In particular, the BHK21 strain of hamster cells and a clone derived from this strain transformed by Hamster Sarcoma Virus HS5 clone) were used.
5 hours later, the cells were well attached to the plastic support, and the products to be tested were added, dilutions having been made thereof in water or in DMSO (dimethylsulfoxide) if the product is sparingly soluble in water. In this latter case, a control was made with the same final concentration of DMSO in the culture medium.
The state of the cells was examined 24, 48 and 72 hours afterwards.

[1] = 10^4 cells, 5 mg/kg, control MST 11.8
[2] = second group: 10^4 cells, 5 mg/kg, control MST 10.9

Compound `CCN(CC)CCCNc1nccc2c(C)c3[nH]c4ccncc4c3cc12` [Example 7, 1-(γ-diethylaminopropyl)amino-5-methyl-dipyrido-[4,3-b][3,4-f] indole] has a 60 days surv. (L1210 leukemia; 10^3 cells, 0.5 mg/kg) of 3, an ILS % (L1210 leukemia; 10^3 cells, 0.5 mg/kg) of 17.4% and an MST (L1210 leukemia; 10^3 cells, 0.5 mg/kg) of 16.2. For the same compound, the Range of death (L1210 leukemia; 10^3 cells, 0.5 mg/kg) was 14-20, the 60 days surv. (L1210 leukemia; 10^3 cells, 5 mg/kg) was 5 and the ILS % (L1210 leukemia; 10^3 cells, 5 mg/kg) was 23.2%. The MST (L1210 leukemia; 10^3 cells, 5 mg/kg) was 17, the Range of death (L1210 leukemia; 10^3 cells, 5 mg/kg) was 15-22 and the 60 days surv. (L1210 leukemia; 10^4 cells, 0.5 mg/kg) was 0. For the same compound, the ILS % (L1210 leukemia; 10^4 cells, 0.5 mg/kg) was 11.5%, the MST (L1210 leukemia; 10^4 cells, 0.5 mg/kg) was 13.54 and the Range of death (L1210 leukemia; 10^4 cells, 0.5 mg/kg) was 11-15. For the same compound, the 60 days surv. (L1210 leukemia; [1]) was 1, the ILS % (L1210 leukemia; [1]) was 33.3% and the MST (L1210 leukemia; [1]) was 16.2. For the same compound, the Range of death (L1210 leukemia; [1]) was 13-21, the “antitumoral activity compared with Ellipticinium acetate (HUM)” value (L1210 leukemia; Table XII summary) was “compete favorably with Ellipticinium acetate (HUM)” and the 60 days surv. (L1210 leukemia; [2]) was 1. The ILS % (L1210 leukemia; [2]) was 65.1%, the MST (L1210 leukemia; [2]) was 18 and the Range of death (L1210 leukemia; [2]) was 14-21. The “cytotoxic activity compared with 2-methyl-9-hydroxy-ellipticinium acetate and 9-hydroxy-ellipticine” value (Cl3/8 cells; Table III summary) was “just as active as the already known derivatives” and the “activity compared with products presently used as antitumoral agents in lower animals” value (Cl3/8 cells; general statement) was “just as active, or more so”.
